In patent US12612410B2 (CHILDREN'S HOSPITAL MEDICAL CENTER, priority 2020, dated 2026):

Assays:
FLT3 = target: T1, FLT3 (Homo sapiens, UniProt P36888); experiment: Reaction Biology NanoBRET target engagement assay, FLT3; type: cell-based; conditions: transfected HEK-293 cells
T1 sequence (P36888 27-993): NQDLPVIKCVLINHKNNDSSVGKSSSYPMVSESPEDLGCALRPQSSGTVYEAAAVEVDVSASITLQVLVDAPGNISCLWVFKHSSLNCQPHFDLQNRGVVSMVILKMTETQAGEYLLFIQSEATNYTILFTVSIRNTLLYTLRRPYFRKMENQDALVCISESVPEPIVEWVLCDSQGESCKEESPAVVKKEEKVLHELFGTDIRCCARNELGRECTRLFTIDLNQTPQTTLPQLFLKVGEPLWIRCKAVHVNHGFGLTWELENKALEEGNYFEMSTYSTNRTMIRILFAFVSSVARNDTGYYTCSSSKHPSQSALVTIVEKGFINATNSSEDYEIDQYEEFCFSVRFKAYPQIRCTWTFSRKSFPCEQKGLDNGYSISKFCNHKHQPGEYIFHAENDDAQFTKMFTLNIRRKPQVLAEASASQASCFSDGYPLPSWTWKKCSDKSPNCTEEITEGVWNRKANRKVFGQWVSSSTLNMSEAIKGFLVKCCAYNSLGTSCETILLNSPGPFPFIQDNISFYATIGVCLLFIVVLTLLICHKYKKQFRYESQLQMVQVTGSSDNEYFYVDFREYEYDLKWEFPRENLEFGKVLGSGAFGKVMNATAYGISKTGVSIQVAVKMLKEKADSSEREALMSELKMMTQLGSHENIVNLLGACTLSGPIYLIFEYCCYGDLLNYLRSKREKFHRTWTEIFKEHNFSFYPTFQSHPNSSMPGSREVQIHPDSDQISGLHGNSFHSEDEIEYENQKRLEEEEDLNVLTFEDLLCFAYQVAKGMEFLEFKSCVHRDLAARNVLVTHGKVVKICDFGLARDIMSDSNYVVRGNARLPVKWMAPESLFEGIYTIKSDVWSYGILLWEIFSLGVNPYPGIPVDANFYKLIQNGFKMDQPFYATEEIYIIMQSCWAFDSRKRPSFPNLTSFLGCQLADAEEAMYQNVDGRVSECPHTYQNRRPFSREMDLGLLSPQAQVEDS
Source text: The NanoBRET assay measures kinase engagement in real time in the context of the intact cell. Unlike the previously described biochemical kinase assay methodologies in Examples 26-27, the NanoBRET assay measures the binding and activity characteristics under equilibrium conditions using full-length kinases in the presence of cellular concentrations of ATP in live, uncompromised cells. As such, the assay provides a more relevant assessment of kinase potency and selectivity that would be expected to be observed in the native cellular environment, where potency is often considerably lower than that observed in the isolated biochemical assays (Vasta, J. D. et al., (2018) Cell Chem. Biol. 25, 206-214). The assay uses a Kinase-NanoLuc® fusion vector expressing a kinase protein to which a luciferase tag has been added, a cell-permeant fluorescent NanoBRET™ tracer, a NanoLuc® substrate, and an extracellular NanoLuc® inhibitor. Upon expression of the luciferase-tagged kinase, cells will produce a strong BRET signal only in the presence of the NanoBRET™ tracer. The extracellular NanoLuc® inhibitor ensures that the BRET signal observed emanates only from live cells. Because the BRET signal has tight distance constraints, addition of the test compound will decrease the BRET signal if the compound competes with the NanoBRET™ tracer for binding to the kinase domain. Under the appropriate tracer conditions established by the manufacturer, quantitative intracellular affinity and relative potency can then be determined using Mass Action model equations.
HEK-293 cells were purchased from ATCC. FuGENEHD Transfection Reagent, Kinase-NanoLucfusion plasmids, Transfection Carrier DNA, NanoBRETTracers and dilution buffer, NanoBRETNano-Glo Substrate, Extracellular NanoLucInhibitor were obtained from Promega.
Assays were conducted following Promega assay protocol with some modifications. HEK-293 Cells were transiently transfected with Kinase-NanoLucFusion Vector DNA by FuGENEHD Transfection Reagent. Testing compounds were delivered into 384 well assay plate by Echo 550 (Labcytelnc, Sunnyvale, CA). Transfected cells were harvested and mixed with NanoBRETTracer Reagent and dispensed into 384 well plates and incubated at 37° C. in 5% CO2 cell culture incubator for 1 hour. The NanoBRETNano-Glo Substrate plus Extracellular NanoLucInhibitor Solution were added into the wells of the assay plate and incubated for 2-3 minutes at room temperature. The donor emission wavelength (460 nm) and acceptor emission wavelength (600 nm) were measured in the EnVisionplate reader. The BRET Ratios were calculated. BRET Ratio=[(Acceptor sample÷Donor sample)−(Acceptor no-tracer control÷Donor no-tracer control)]. The IC50 values of compounds were calculated with Prism GraphPad program.
NanoBRET™ Target Engagement Assay Protocol
1. Transient Transfection of HEK-293 Cells NanoLuc® Fusion Vector DNA
• 1). Cultivate HEK-293 cells (70-80% confluence) appropriately prior to assay. Trypsinize and collect HEK-293 cells. • 2). Prepare lipid: DNA complexes as follows: • a. Prepare a […] solution of DNA in Opti-MEM without serum that consists of the following ratios of carrier DNA and DNA encoding NanoLuc® fusion. 9.0 µg/mL of Transfection Carrier DNA, […] of NanoLuc fusion vector DNA and 1 mL of Opti-MEM without phenol red. Mix thoroughly. • b. Add 30 l of FuGENE HD Transfection Reagent into each milliliter of DNA mixture to form lipid: DNA complex. • c. Mix by inversion 10 times. • d. Incubate at ambient temperature for 20 minutes to allow complexes to form. • 3). In a sterile, conical tube, mix 1 part of lipid: DNA complex with 20 parts of HEK-293 cells in suspension. Mix gently by inversion 5 times. • 4). Dispense cells+lipid: DNA complex into a sterile tissue culture dish and incubate for 22-24 hours. 2. Addition of Test Compounds (dry plate shooting)
Each test compound is delivered from the compound source plate to the wells of 384-well white NBS plate by Echo 550.
3. […]

MOLM14 D835Y cells = experiment: MOLM14 D835Y cell viability assay (Cell Titer Glo); type: cell-based; conditions: Homo sapiens, MOLM-14, 48 h
Method in brief: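 MOLM14 cells carrying FLT3 D835Y or F691L were seeded at 1000 cells/well in RPMI-1640 with 20% FBS and dosed at 22 concentrations, 1:2 dilutions from 10 μM. Viability after 48 h by Cell Titer Glo luminescence; 2.3 μM bortezomib as cytotoxic control.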

Row | Structure (SMILES) | IC50 (FLT3) | IC50 (MOLM14 D835Y cells)
1 | F[C@H]1CCNC[C@@H]1Nc1cccc(-c2cnc3cnc(C4CC4)cn23)n1 [Compound 51, 6-(6-cyclopropylimidazo[1,2-a]pyrazin-3-yl)-N-((3S,4S)-4-fluoropiperidin-3-yl)pyridin-2-amine] | 4 nM | 9 nM
2 | FC(F)COc1cn2c(-c3cccc(N[C@H]4CNC[C@@H]4F)n3)cnc2cn1 [Compound 58, 6-(6-(2,2-difluoroethoxy)imidazo[1,2-a]pyrazin-3-yl)-N-((3S,4S)-4-fluoropyrrolidin-3-yl)pyridin-2-amine] | 52 nM | 30 nM
3 | O=S1(=O)CCCN1c1cn2c(-c3cccc(N[C@H]4CNCC[C@@H]4F)n3)cnc2cn1 [Compound 97, 2-(3-(6-(((3S,4S)-4-fluoropiperidin-3-yl)amino)pyridin-2-yl)imidazo[1,2-a]pyrazin-6-yl)isothiazolidine 1,1-dioxide] | 0.9 nM | 5 nM
4 | O=C1CCCN1c1cn2c(-c3nc(N[C@H]4CNCC[C@@H]4F)c(F)cc3F)cnc2cn1 [Compound 107, 1-[3-[3,5-difluoro-6-[[(3S,4S)-4-fluoro-3-piperidyl]amino]-2-pyridyl]imidazo[1,2-a]pyrazin-6-yl]pyrrolidin-2-one] | 0.9 nM | 21 nM
5 | O=C1CCCN1c1cn2c(-c3nc(N[C@@H]4CCCNC4)c(F)cc3F)cnc2cn1 [Compound 108, (R)-1-(3-(3,5-difluoro-6-(piperidin-3-ylamino)pyridin-2-yl)imidazo[1,2-a]pyrazin-6-yl)pyrrolidin-2-one] | 31 nM | 26 nM
6 | O=C1CCCN1c1cn2c(-c3cccc(N[C@H]4CNCC[C@@H]4F)n3)cnc2cn1 [Compound 119, 1-(3-(6-(((3S,4S)-4-fluoropiperidin-3-yl)amino)pyridin-2-yl)imidazo[1,2-a]pyrazin-6-yl)pyrrolidin-2-one] | 16 nM | 19 nM
7 | O=C1CCCN1c1cn2c(-c3cccc(N[C@H]4CNC[C@@H]4F)n3)cnc2cn1 [Compound 121, 1-(3-(6-(((3S,4S)-4-fluoropyrrolidin-3-yl)amino)pyridin-2-yl)imidazo[1,2-a]pyrazin-6-yl)pyrrolidin-2-one] | 21 nM | 23 nM
8 | CC(C)(C)c1cn2c(-c3nc(N[C@H]4CNC[C@@H]4F)c(F)cc3F)cnc2cn1 [Compound 125] | 937 nM | 163 nM
9 | CC(C)(C)c1cn2c(-c3nc(N[C@@H]4CCCNC4)c(F)cc3F)cnc2cn1 [Compound 126, (R)-6-(6-(tert-butyl)imidazo[1,2-a]pyrazin-3-yl)-3,5-difluoro-N-(piperidin-3-yl)pyridin-2-amine] | 8 nM | 21 nM
10 | CC(C)(C)c1cn2c(-c3nc(N[C@H]4CNCC[C@@H]4F)c(F)cc3F)cnc2cn1 [Compound 127, 6-(6-(tert-butyl)imidazo[1,2-a]pyrazin-3-yl)-3,5-difluoro-N-((3S,4S)-4-fluoropiperidin-3-yl)pyridin-2-amine] | 16 nM | 44 nM
11 | CC(C)(C)c1cn2c(-c3cccc(N[C@@H]4CCCNC4)n3)cnc2cn1 [Compound 129, (R)-6-(6-(tert-butyl)imidazo[1,2-a]pyrazin-3-yl)-N-(piperidin-3-yl)pyridin-2-amine] | 12 nM | 33 nM
12 | CC(C)(C)c1cn2c(-c3cccc(N[C@H]4CNCC[C@@H]4F)n3)cnc2cn1 [Compound 130, 6-(6-(tert-butyl)imidazo[1,2-a]pyrazin-3-yl)-N-((3S,4S)-4-fluoropiperidin-3-yl)pyridin-2-amine] | 11 nM | 26 nM
